# Data taken from US20130045991A1, “NEUROPROTECTIVE MODULATION OF NMDA RECEPTOR SUBTYPE ACTIVITIES” (THE UNIVERSITY OF BRITISH COLUMBIA, priority 2005, published 2013).
# Tests used:
# cortical neurons [1] = assay: Staurosporine (STS)-induced neuronal apoptosis; format: cell-based, rat; conditions: NMDA 200 μM, 5 min, Ro 25-6981 0.5 μM present
# Source text: In alternative aspects of the invention, we have achieved specific activation of NR2A-containing receptors using two different strategies. First, we examined the effect of selective activation of extrasynaptic NR2A-containing receptor activation on neuronal appopotosis induced by staurosporine (STS), a potent apoptosis inducer (Budd et al., 2000). […] The NMDA-induced neuronal protection was indeed mediated by NR2A-containing receptors as it was prevented by co-application of NVP-AAM077 (p<0.001 compared with STS alone).
# Dissociated cultures of cortical neurons were prepared from 18-day Sprague-Dawley rat embryos as described previously (Mielke et al., 2005). To obtain mixed cortical cultures enriched with neurons, uridine (10 μM) and 5-Fluor-2′-deoxyuridine (10 μM) were added to the culture medium at 3 DIV and maintained for 48 h, to inhibit non-neuronal cell proliferation, before the cultures were shifted back to the normal culture medium. Mature neurons (11-14 DIV) were used for experiments. To induce neuronal apoptosis, cortical cultures were stimulated with NMDA (50 μM) and glycine (10 μM) for 20 min, or STS (100 nM) for 1 h in Mg2+-free extracellular solution (ECS) containing (mM): 25 HEPES acid, 140 NaCl, 33 glucose, 5.4 KCl and 1.3 CaCl2, with pH 7.35 and osmolarity 320-330 mOsm. […]
# To visualize injured neurons, Hoechst-33342 (10 μg/ml) was added to the culture medium 20 h after treatments and incubated for 45 min at 37 °C. Images were taken with a Leica DMIRE2 fluorescence microscope. Quantitative assessment of neuronal apoptosis was performed 20 h following treatments using a Cell Death Detection ELISAPLUS Kit (Roche Applied Science). Absorbance readings were determined using a spectrophotometric microplate reader. […] Data are expressed as the difference in apoptosis relative to control and are expressed as a percentage.
# synaptic NMDA receptors = assay: mEPSC recording, NMDA receptor-mediated component; format: cell-based, rat
# [2] = system: middle cerebral artery occlusion (MCAo); assay: MCAo focal ischemic stroke model, post-ischemic treatment; format: in vivo, rat
# Source text: In some clinical settings, it is desirable to implement therapy after the onset of neuronal injury, such as stroke or other ischemic events.
# Transient cerebral focal ischemia was produced by middle cerebral artery occlusion (MCAo) as described (Aarts et al., 2002; Bederson et al., 1986; Longa et al., 1989). Briefly, male Sprague-Dawley rats (Charles River Laboratories) weighing ˜300 g were anesthetized and MCAo was achieved by introducing a 3-0 monofilament suture into the MCA via the internal carotid artery. Body temperature was maintained at 37.0±0.5° C., and blood pressure and blood gases were monitored during the experiments. Animals were sacrificed 24 h following MCAo onset. Cerebral infarction was analyzed using brain sections stained with hematoxylin and eosin (H & E) or 2,3,5-triphenyltetrazolium chloride (TTC). 10 min before the animals were sacrificed, two tests, the postural reflex test to examine upper body posture (Bederson et al., 1986) and the forelimb placing test to examine sensorimotor integration in forelimb placing responses to visual, tactile, and proprioceptive stimuli (De Ryck et al., 1989), were performed to grade neurological function on a scale of 0 to 12 (0=normal, 12=worst). In the pretreatment study, a single bolus of drugs (NR2A-specific antagonist NVP-AAM077 (2.4 mg/kg) or NR2B specific antagonist Ro 25-6981 (6 mg/kg) or vehicle (saline)) was infused intravenously 30 min before a 1-h MCAo. For post-treatment experiments, animals were subjected to a 1.5-h MCAo and drug treatments (glycine, 800 mg/kg; NVP-AAM077 and Ro 25-6981 at the same doses as in the pretreatment study) were then given via intraperitoneal injection (i.p.) 3 h after reperfusion (4.5 h after the onset of MCAo).
# The activating effect on NR2A-containing receptors was mimicked with the application of the NMDA receptor co-agonist glycine in the presence of an […] NR2B antagonist. Glycine by itself potentiates the function of NMDA receptors that are activated by endogenously released glutamate from presynaptic terminals both in vitro and in vivo (Johnson et al., 1987; Lu et al., 2001; De et al., 2000).
# cortical neurons [3] = assay: NMDA-mediated excitotoxicity: neuronal apoptosis in cortical cultures; format: cell-based, rat; conditions: 50 μM NMDA plus 10 μM glycine 20 min, assayed 20 h after; APV 50 μM, Ro25-6981 0.5 μM, NVP-AAM077 0.4 μM
# Procedure: (§1) Mature neurons (11-14 DIV) were used for experiments.
# (§2) To visualize injured neurons, Hoechst-33342 (10 μg/ml) was added to the culture medium 20 h after treatments and incubated for 45 min at 37 °C. Images were taken with a Leica DMIRE2 fluorescence microscope. Quantitative assessment of neuronal apoptosis was performed 20 h following treatments using a Cell Death Detection […] Kit (Roche Applied Science). Absorbance readings were determined using a spectrophotometric microplate reader. Data analyses were carried out according to the manufacturer's instructions. Data are expressed as the difference in apoptosis relative to control and are expressed as a percentage.
# [4] = system: acute ischaemic stroke in the carotid artery territory; conditions: sublingual 1.0-2.0 g/day started within 6 h after onset; cited from earlier work
# cortical neurons [5] = assay: Glycine pretreatment before NMDA-induced neuronal apoptosis; format: cell-based, rat
# Procedure: as §1, §2
# permanent focal ischemia = conditions: in vivo; cited from earlier work
# [6] = system: NR1C and NR2B receptors over NR1C+NR2A receptors; conditions: cited from earlier work
# [7] = system: AMPA subtype glutamate receptor; assay: mEPSC recording, fast AMPA receptor-mediated component; format: cell-based, rat; conditions: -60 mV, zero added Mg2+
compound,measurement,setting,value
"CN[C@H](CC(=O)O)C(=O)O [NMDA, N-methyl-D-aspartate]",effect on STS-induced apoptosis,"cortical neurons [1]; STS 100 nM, 1 h",significantly reduced STS-induced apoptosis
same,neuronal apoptosis on its own,cortical neurons [1]; synaptic receptors blocked (MK-801 + bicuculline),did not increase neuronal apoptosis on its own
C[C@]12N[C@H](Cc3ccccc31)c1ccccc12 [MK-801],blockade of synaptic NMDA receptors (APV-sensitive component of mEPSCs),"synaptic NMDA receptors; MK-801 10 μM co-applied with bicuculline 50 μM, within 10 min",complete blockade
same,effect of co-administration on the glycine effect (infarct volume reduction),[2]; co-administered with glycine 800 mg/kg 4.5 h after stroke onset,virtually completely abolished
same,neuroprotection / total infarct volume compared with MCAo alone,"[2]; given 3 h after 1.5-h MCAo (4.5 h after stroke onset), MK801 1 mg/Kg, glycine 800 mg/Kg, Ro 25-6981 6 mg/Kg",did not provide any noticeable neuroprotection
N[C@@H](CCCP(=O)(O)O)C(=O)O [APV],effect on slow NMDA receptor-mediated component of mEPSCs,"synaptic NMDA receptors; -60 mV, zero added Mg2+, APV 50 μM, Ro 25-6981 0.5 μM",fully blocked
same,effect on NMDA-induced neuronal apoptosis/damage,cortical neurons [3],fully blocked
"NCC(=O)O [glycine, Glycine]",clinical effects,[4],favourable clinical effects
same,neuroprotection / total infarct volume compared with MCAo alone,"[2]; rat, in vivo",remarkable reduction in total infarct volume
same,effect of pretreatment on NMDA-induced neuronal apoptosis,cortical neurons [5],significantly reduced NMDA-induced neuronal apoptosis
"Cc1ccc(CC2(O)CCN(CCOc3ccc(O)cc3)CC2)cc1 [Ro 63-1908, 1-[2-(4-hydroxy-phenoxy)-ethyl]-4-(4-methyl-benzyl)-piperidin-4-ol]",neuroprotective effect against cortical damage,permanent focal ischemia,dose-related neuroprotective effect
same,selectivity for the NR1C and NR2B receptors over NR1C+NR2A receptors,[6],"20,000 fold"
"O=C1N=c2cc([N+](=O)[O-])c([N+](=O)[O-])cc2=NC1=O [DNQX, 6,7-dinitroquinoxaline-2,3-dione]",effect on fast AMPA receptor-mediated component of mEPSCs,[7],completely blocked
